Experimental data as given in patent US8951975B2, “ECT2 peptides and vaccines including the same” (OncoTherapy Science, Inc., priority 2010, dated 2015).
Entries after “also recorded” stand apart in the source; their conditions may differ. Ends that are not written are not given here.

What was measured:
peptide-pulsed T2 cells [1] = test: IFN-gamma ELISPOT assay on CTLs induced with peptide-pulsed DCs; type: cell-based, human; conditions: for CTL inducibility / specific CTL activity of CTLs stimulated with the peptide: summary statement; for IFN-gamma production of CTLs induced with the peptide (ELISPOT): against peptide-pulsed target cells, compared with control without peptide
Source text: Monocyte-derived dendritic cells (DCs) were used as antigen-presenting cells to induce cytotoxic T lymphocyte (CTL) responses against peptides presented on human leukocyte antigen (HLA). DCs were generated in vitro as described elsewhere (Nakahara S et al., Cancer Res 2003 Jul. 15, 63(14): 4112-8). Specifically, peripheral blood mononuclear cells (PBMCs) isolated from a normal volunteer (HLA-A*0201 positive) by Ficoll-Plaque (Pharmacia) solution were separated by adherence to a plastic tissue culture dish (Becton Dickinson) so as to enrich them as the monocyte fraction. The monocyte-enriched population was cultured in the presence of 1,000 U/ml of granulocyte-macrophage colony-stimulating factor (R&D System) and 1,000 U/ml of interleukin (IL)-4 (R&D System) in AIM-V Medium (Invitrogen) containing 2% heat-inactivated autologous serum (AS). After 7 days of culture, the cytokine-induced DCs were pulsed with 20 micro-g/ml of each of the synthesized peptides in the presence of 3 micro-g/ml of beta 2-microglobulin for 3 hrs at 37 degrees C. in AIM-V Medium. The generated cells appeared to express DC-associated molecules, such as CD80, CD83, CD86 and HLA class II, on their cell surfaces (data not shown). These peptide-pulsed DCs were then inactivated by X-irradiation (20 Gy) and mixed at a 1:20 ratio with autologous CD8+ T cells, obtained by positive selection with CD8 Positive Isolation Kit (Dynal). These cultures were set up in 48-well plates (Corning); each well contained 1.5×10^4 peptide-pulsed DCs, 3×10^5 CD8+ T cells and 10 ng/ml of IL-7 (R&D System) in 0.5 ml of AIM-V/2% AS medium. Three days later, these cultures were supplemented with IL-2 (CHIRON) to a final concentration of 20 IU/ml. On days 7 and 14, the T cells were further stimulated with the autologous peptide-pulsed DCs. The DCs were prepared each time by the same way described above. CTLs were tested against peptide-pulsed T2 cells after the 3rd round of peptide stimulation on day 21 (Tanaka H et al., Br J Cancer 2001 Jan. 5, 84(1): 94-9; Umano Y et al., Br J Cancer 2001 Apr. 20, 84(8): 1052-7; Uchida N et al., Clin Cancer Res 2004 Dec. 15, 10(24): 8577-86; Suda T et al., Cancer Sci 2006 May, 97(5): 411-9; Watanabe T et al., Cancer Sci 2005 August, 96(8): 498-506).
(§1) Specifically, peptide-pulsed T2 (1×10^4/well) was prepared as stimulator cells. Cultured cells in 48 wells were used as responder cells. IFN-gamma ELISPOT assay and IFN-gamma ELISA assay were performed under manufacture procedure.

peptide-pulsed T2 cells [2] = test: IFN-gamma ELISA assay of CTL clones established by limiting dilution; type: cell-based, human; conditions: against target cells pulsed with peptide vs not pulsed
Method: The dilutions were made to have 0.3, 1, and 3 CTLs/well in 96 round-bottomed micro titer plate (Nalge Nunc International). CTLs were cultured with 1×10^4 cells/well of 2 kinds of human B-lymphoblastoid cell lines, 30 ng/ml of anti-CD3 antibody, and 125 U/ml of IL-2 in a total of 150 micro-l/well of AIM-V Medium containing 5% AS. 50 micro-1/well of IL-2 were added to the medium 10 days later so to reach a final concentration of 125 U/ml IL-2. CTL activity was tested on the 14th day, and CTL clones were expanded using the same method as described above (Uchida N et al., Clin Cancer Res 2004 Dec. 15, 10(24): 8577-86; Suda T et al., Cancer Sci 2006 May, 97(5): 411-9; Watanabe T et al., Cancer Sci 2005 August, 96(8): 498-506).
as §1

peptide-pulsed T2 cells [3] = test: IFN-gamma ELISA assay of established CTL lines; type: cell-based, human; conditions: against target cells pulsed with the corresponding peptide vs without peptide pulse
Method: CTLs were expanded in culture using the method similar to the one described by Riddell et al. (Walter E A et al., N Engl J Med 1995 Oct. 19, 333(16): 1038-44; Riddell S R et al., Nat Med 1996 February, 2(2): 216-23). A total of 5×10^4 CTLs were suspended in 25 ml of AIM-V/5% AS medium with 2 kinds of human B-lymphoblastoid cell lines, inactivated by Mitomycin C, in the presence of 40 ng/ml of anti-CD3 monoclonal antibody (Pharmingen). One day after initiating the cultures, 120 IU/ml of IL-2 were added to the cultures. The cultures were fed with fresh AIM-V/5% AS medium containing 30 IU/ml of IL-2 on days 5, 8 and 11 (Tanaka H et al., Br J Cancer 2001 Jan. 5, 84(1): 94-9; Umano Y et al., Br J Cancer 2001 Apr. 20, 84(8): 1052-7; Uchida N et al., Clin Cancer Res 2004 Dec. 15, 10(24): 8577-86; Suda T et al., Cancer Sci 2006 May, 97(5): 411-9; Watanabe T et al., Cancer Sci 2005 August, 96(8): 498-506).
as §1

[4] = test system: COS7 cells transfected with ECT2 and HLA-A*0201; test: Specific CTL activity against target cells exogenously expressing ECT2 and HLA-A*0201; type: cell-based, African green monkey; conditions: for Specific CTL activity against COS7 cells transfected with both ECT2 and HLA-A*0201: CTL clone (SEQ ID NO: 1) or CTL line (SEQ ID NO: 21) as effector cells; for Specific CTL activity against control COS7 cells expressing either HLA-A*0201 or ECT2: controls transfected with only one gene
Source text: The cDNA encoding an open reading frame of target genes or HLA-A*0201 was amplified by PCR. The PCR-amplified product was cloned into a vector. The plasmids were transfected into COS7, which is the target genes and HLA-A*0201-null cell line, using lipofectamine 2000 (Invitrogen) according to the manufacturer's recommended procedures. After 2 days from transfection, the transfected cells were harvested with versene (Invitrogen) and used as the target cells (5×10^4 cells/well) for CTL activity assay.
The established CTL lines and clones raised against these peptides was examined for the ability to recognize target cells that exogenously express ECT2 and HLA-A*0201 molecule. […] COS7 cells transfected with either full length of ECT2 or HLA-A*0201 were prepared as the controls.

| Substance | CTL inducibility / specific CTL activity of CTLs stimulated with the peptide (peptide-pulsed T2 cells [1]) | IFN-gamma production of CTL clones stimulated with the peptide (ELISA) (peptide-pulsed T2 cells [2]; listed as ECT2-A02-9-664) | IFN-gamma production of CTLs induced with the peptide (ELISPOT) (peptide-pulsed T2 cells [1]) | IFN-gamma production of CTL lines stimulated with the peptide (ELISA) (peptide-pulsed T2 cells [3]) | IFN-gamma production of CTL clones stimulated with the peptide (ELISA) (peptide-pulsed T2 cells [2]; listed as ECT2-A02-9-34) | Specific CTL activity against COS7 cells transfected with both ECT2 and HLA-A*0201 ([4]; listed as ECT2-A02-9-34) | Specific CTL activity against control COS7 cells expressing either HLA-A*0201 or ECT2 [4] | Specific CTL activity against COS7 cells transfected with both ECT2 and HLA-A*0201 ([4]; listed as ECT2-A02-10-33) |
| --- | --- | --- | --- | --- | --- | --- | --- | --- |
| 1 (LLIGSTSYV) [compound 1] | strong CTL inducibility |  |  |  |  |  |  |  |
| 3 (FLFNDCLEI) [compound 3] | strong CTL inducibility |  |  |  |  |  |  |  |
| 21 (NLLIGSTSYV) [compound 21] | strong CTL inducibility |  |  |  |  |  |  |  |
| FLFNDCLEI [SEQ ID NO: 3] | significant and specific CTL activity | potent IFN-gamma production | potent IFN-gamma production | potent IFN-gamma production |  |  |  |  |
| LLIGSTSYV [SEQ ID NO: 1] | significant and specific CTL activity |  | potent IFN-gamma production | potent IFN-gamma production | potent IFN-gamma production | potent CTL activity; also recorded: specific CTL activity | no significant specific CTL activity was detected |  |
| NLLIgSTSYV (NLLIGSTSYV; not fully specified; printed as NLLIgSTSYV) [SEQ ID NO: 21] | significant and specific CTL activity |  | potent IFN-gamma production | potent IFN-gamma production |  |  | no significant specific CTL activity was detected | potent CTL activity; also recorded: specific CTL activity |
